One data set deals with HBs antigens (HBsAg). The data set can be described thus: HepAD38 cells HBsAg ELISA. It is filed as cell-based, Hepatitis B virus. The conditions noted are these: read-out: HepAD38, HBsAg (EC50), 7 days total treatment, HBsAg ELISA of cell media. The procedure:
(§1) Example 36 HepAD38 Cells—HBsAg ELISA and Cytotoxicity Assays
(§2) HepAD38 cells are maintained in collagen-coated flasks in cell culture medium (DMEM/F12 containing 10% fetal bovine serum (FBS), GlutaMax-1, penicillin/streptomycin, non-essential amino acids, Na pyruvate, 250 μg/mL geneticin, and 1 μg/mL doxycycline). Compound solutions are prepared in DMSO and compound are serially diluted for final concentrations of 4000, 1000, 250, 62.5, 15.6, 3.91, 0.977, 0.244, 0.061, and 0.015 ηM. The cells are then trypsinized and the cells are plate at 10,000 cells per well. Incubate plates are incubated at 37° C., 5% CO2 for 4 days. Media is replaced with new media with compound treatment. The plates are then incubated at 37° C., 5% CO2 for an additional 3 days for a total treatment time of 7 days. For antiviral response, HBsAg was measured using the HBsAg ELISA kit (International Immuno-diagnostics) with instructions provided. 100 uL of cell media samples was used for ELISA. The absorbance was read on the Spectramax® 384 plate reader (Molecular Devices) at 450 nm. For cell toxicity, the cells were used for CellTiter-Glo® Luminescent Cell Viability Assay reagent (Promega). The luminescence was read on Envision Multilabel Reader (Perkin Elmer). The data was analyzed compared to the DMSO control. % inhibition=(1−(unknown/high control))*100
(§3) The average % inhibition values from duplicate assay plates are then plotted in GraphPad Prism to determine one IC value: Four-parameter logistic curve with equation Y=Bottom+(Top-Bottom)/(1+10^((Log IC50−X)*HillSlope)) pIC50=[…]

The test system of another data set is HepAD38 cells. The data set can be described thus: HepAD38 cells cytotoxicity assay (CellTiter-Glo Luminescent Cell Viability Assay). It is filed as cell-based. The conditions noted are these: 7 days total treatment, read-out: Cell tox (EC50, ηM). As for the experimental part: as §1, §2, §3
Experiment in data set [1]: as above
The format is cell-based. The settings on record: human, 7 days total treatment, read-out: Cell tox (EC50, ηM). The procedure: as §1, §2, §3

As to `CC(C)(C)C1Cc2cc(OCC3CC3)c(Cl)nc2-c2cc(=O)c(C(=O)O)cn21` (single isomer, unassigned; isomer 1) [Example 30-A, 6-(tert-Butyl)-2-chloro-3-(cyclopropylmethoxy)-10-oxo-6,10-dihydro-5H-pyrido[1,2-h][1,7]naphthyridine-9-carboxylic acid (isomer 1)], the concentration giving a half-maximal response (EC50) in the data set with HBs antigens (HBsAg) was below 0.001 µM; with HepAD38 cells, above 4 µM.

In the case of `CC(C)C1(C)Cc2cc(OCC3CC3)c(Cl)nc2-c2cc(=O)c(C(=O)O)cn21` (single isomer, unassigned; isomer-2) [Example 27, (2-Chloro-3-(cyclopropylmethoxy)-6-isopropyl-6-methyl-10-oxo-5,10-dihydro-6H-pyrido[1,2-h][1,7]naphthyridine-9-carboxylic acid-Isomer-2], the concentration for a half-maximal effect (EC50) with HBs antigens (HBsAg) is above 0.1 µM; in the data set on HepAD38 cells, above 4 µM.

As to `COCCCOc1cc2c(nc1C1CC1)-c1cc(=O)c(C(=O)O)cn1C(C)(C(C)C)C2` (single isomer, unassigned; isomer-2) [Example 29, 2-Cyclopropyl-6-isopropyl-3-(3-methoxypropoxy)-6-methyl-10-oxo-5,10-dihydro-6H-pyrido[1,2-h][1,7]naphthyridine-9-carboxylic acid-Isomer-2], the EC50 with HBs antigens (HBsAg) is 0.01 to 0.1 µM; with HepAD38 cells, above 4 µM.

Consider `COCCCOc1cc2c(nc1OC)-c1cc(=O)c(C(=O)O)cn1[C@H](C(C)(C)C)C2` [Example 19, (S)-6-(tert-Butyl)-2-methoxy-3-(3-methoxypropoxy)-10-oxo-6,10-dihydro-5H-pyrido[1,2-h][1,7]naphthyridine-9-carboxylic acid], for which the concentration for a half-maximal effect (EC50) with HBs antigens (HBsAg) is below 0.001 µM. Moreover, the concentration for a half-maximal effect (EC50) at 7 days in data set [1] was above 4 µM.

On to `COCCCOc1cc2c(nc1O)-c1cc(=O)c(C(=O)O)cn1[C@H](C(C)(C)C)C2` [Example 20, (S)-6-(tert-Butyl)-2-hydroxy-3-(3-methoxypropoxy)-10-oxo-6,10-dihydro-5H-pyrido[1,2-h][1,7]naphthyridine-9-carboxylic acid], for which, in the data set with HBs antigens (HBsAg), the half-maximal effective concentration (EC50) is above 0.1 µM. Moreover, in data set [1], the EC50 at 7 days is above 4 µM.

For `C=C(C)c1nc2c(cc1OCCCOC)C[C@@H](C(C)(C)C)n1cc(C(=O)O)c(=O)cc1-2` [Example 21, (S)-6-(tert-Butyl)-3-(3-methoxypropoxy)-10-oxo-2-(prop-1-en-2-yl)-6,10-dihydro-5H-pyrido[1,2-h][1,7]naphthyridine-9-carboxylic acid], the EC50 in the data set with HBs antigens (HBsAg) was below 0.001 µM. Further, the EC50 at 7 days in data set [1] was above 4 µM.

Turning to `COCCCOc1cc2c(nc1C(C)C)-c1cc(=O)c(C(=O)O)cn1[C@H](C(C)(C)C)C2` [Example 22, (S)-6-(tert-Butyl)-2-isopropyl-3-(3-methoxypropoxy)-10-oxo-6,10-dihydro-5H-pyrido[1,2-h][1,7]naphthyridine-9-carboxylic acid], the concentration for a half-maximal effect (EC50) in the data set with HBs antigens (HBsAg) was below 0.001 µM. For the same compound, in data set [1], the EC50 at 7 days is above 4 µM.

With `COCCCOc1cc2c(nc1Cl)-c1cc(=O)c(C(=O)O)c(C)n1[C@H](C(C)(C)C)C2` [Example 23, (S)-6-(tert-Butyl)-2-chloro-3-(3-methoxypropoxy)-8-methyl-10-oxo-6,10-dihydro-5H-pyrido[1,2-h][1,7]naphthyridine-9-carboxylic acid], the 50% effective concentration (EC50) in the data set on HBs antigens (HBsAg) is above 0.1 µM. Further, in data set [1], the concentration for a half-maximal effect (EC50) at 7 days is above 4 µM.

Regarding `COCCCOc1cc2c(nc1CO)-c1cc(=O)c(C(=O)O)cn1[C@H](C(C)(C)C)C2` [Example 24, (S)-6-(tert-Butyl)-2-(hydroxymethyl)-3-(3-methoxypropoxy)-10-oxo-5,10-dihydro-6H-pyrido[1,2-h][1,7]naphthyridine-9-carboxylic acid], in the data set on HBs antigens (HBsAg), the EC50 is 0.001 to 0.01 µM. Further, the EC50 at 7 days in data set [1] was above 4 µM.

With `COCCCOc1cc2c(nc1C1CC1)-c1c(O)c(=O)c(C(=O)O)cn1[C@H](C(C)(C)C)C2` [Example 25, (S)-6-(tert-Butyl)-2-cyclopropyl-11-hydroxy-3-(3-methoxypropoxy)-10-oxo-5,10-dihydro-6H-pyrido[1,2-h][1,7]naphthyridine-9-carboxylic acid], the EC50 in the data set on HBs antigens (HBsAg) is below 0.001 µM. In addition, the concentration giving a half-maximal response (EC50) at 7 days in data set [1] was above 4 µM.

With `O=C(O)c1cn2c(cc1=O)-c1nc(Cl)c(OCC3CC3)cc1CC21CCC1` [Example 31, 2′-Chloro-3′-(cyclopropylmethoxy)-10′-oxo-5′,10′-dihydrospiro[cyclobutane-1,6′-pyrido[1,2-h][1,7]naphthyridine]-9′-carboxylic acid], the EC50 with HBs antigens (HBsAg) lay in the range of 0.001 to 0.01 µM. In addition, the half-maximal effective concentration (EC50) at 7 days in data set [1] was above 4 µM.

As for `COc1cc2c(nc1OC)-c1cc(=O)c(C(=O)O)cn1C1(CCC1)C2` [Example 32, 2′,3′-Dimethoxy-10′-oxo-5′,10′-dihydrospiro[cyclobutane-1,6′-pyrido[1,2-h][1,7]naphthyridine]-9′-carboxylic acid], in the data set on HBs antigens (HBsAg), the concentration giving a half-maximal response (EC50) fell in the range of 0.01 to 0.1 µM. Further, the half-maximal effective concentration (EC50) at 7 days in data set [1] was above 4 µM.

In the case of `Cc1cc2c(nc1C)CC(C(C)C)n1cc(C(=O)O)c(=O)cc1-2` (centres unmarked) [Example 33, 6-Isopropyl-2,3-dimethyl-10-oxo-5,10-dihydro-6H-pyrido[2,1-f][1,6]naphthyridine-9-carboxylic acid], the EC50 in the data set on HBs antigens (HBsAg) was above 0.1 µM. Further, the EC50 at 7 days in data set [1] was above 4 µM.

Source of the values: patent US12221444B2, “5,6,7,7a-tetrahydrocyclopenta[f]pyrido[1,2-h][1,7]naphthyridin-11(4bH)-one compounds and methods of use” (GLAXOSMITHKLINE INTELLECTUAL, priority 2017, dated 2025).
